Assay results published in patent US8889620B2, “Pharmaceutical compositions comprising peptide antagonists of vascular endothelial growth factor” (Children's Medical Center Corporation, priority 1997, dated 2014).
“Also recorded” adds a separate entry of the source. Where no end group is shown, it is not given here.

How the values were obtained:
KDR/Flk-1 = test: Cross-linking of 125I-VEGF165 to KDR/Flk-1 on HUVEC; format: binding, human; conditions: 15 ug/ml fusion protein, FIG. 4
Protocol: (§1) FIG. 4. GST-EX 7+8 fusion protein inhibits cross-linking of ^125I-VEGF165 to ^125I-VEGF165R and to KDR/Flk-1. ^125I-VEGF165 (5 ng/ml) was bound to subconfluent cultures of HUVEC (lanes 1 and 2) and MDA-MB-23 1 cells (lanes 3 and 4) in 6-cm dishes. The binding was carried out in the presence (lanes 2 and 4) or the absence (lanes 1 and 3) of 15 ug/ml GST-Ex 7+8. Heparin (1 ug/ml) was added to each dish. At the end of a 2-h incubation, ^125I-VEGF165 was chemically cross-linked to the cell surface. The cells were lysed, and proteins were resolved by 6% SDS-PAGE. The gel was dried and exposed to x-ray film.
(§2) Binding and cross-linking experiments using 125I-VEGF165 and 125I-VEGF121 were performed at described previously (Gitay-Goren, et al., J. Biol. Chem., 287, 6003-6096 (1992), Soker, et al., J: Biol. Chem., 271,5761-5767 (1996)). VEGF binding was quantified by measuring the cell-associated radioactivity in a y-counter (Beckman, Gamma 5500). The counts represent the average of three walls. All experiments were repeated at least three times, and similar results were obtained. 125I-VEGF cross-linked complexes were resolved by 6% SDS-PAGE, and the gels were exposed to a phosphor screen and scanned after 24 h by a PhosphorImager (Molecular Dynamics). Subsequently, the gels were exposed to x-ray film.

[1] = tested on: VEGF165-induced proliferation of HUVEC; test: Inhibition of VEGF165-stimulated HUVEC proliferation; format: cell-based, human
Protocol: FIG. 6. GST-Ex 7+8 fusion protein inhibits VEGF165-stimulated HUVEC proliferation. HUVEC were cultured in 96-well dishes (5,000 cell/well) as in FIG. 2. Increasing concentrations of VEGF165 (open circles), together with 15 ug/ml GST-Ex 7+8 (closed circles) or 25 ug/ml GST (squares), were added to the medium, and the cells were incubated for 4 more days. DNA synthesis was measured in HUVEC as described in FIG. 2. The results represent the average counts of three wells, and the standard deviations were determined.
(§3) FIG. 7. GST-Ex 7+8 fusion protein inhibits VEGF165 and VEGF121-stimulated HUVEC proliferation. Increasing concentration of VEGF165 (circles) or VEGF121 (square) with 15 ug/ml GST-Ex 7+8 (closed symbols) or without GST-Ex 7+8 (open symbols) were added to HUVEC, and [*H]thymidine incorporation into the DNA was measured as in FIG. 2. The results represent the average counts of three wells and the standard deviations were determined.
(§4) HUVEC were seeded in gelatin-coated 96-well dishes at 4,000 cells/200 Ul/well in M-199 containing 5% FCS and GPS. After 24 H, VEGF isoforms and VEGF exon 7-GST fusion proteins were added to the wells at the same time. The cells were incubated for 72 h, and [3H]thymidine (1 pC/ml) was added for 10-12 h. The medium was aspirated, and the cells were trypsinized and harvested by an automatic cell harvester (TOMTEC) and loaded onto Filtermats (Wallac). The Filtermats were scanned and cpm were determined by a MicroBeta counter (Wallac). The results represent the average of samples assayed in triplicate, and the standard derivations were determined. All experiments were repeated at least three times and similar results were obtained.

[2] = tested on: VEGF121-induced proliferation of HUVEC; test: Inhibition of VEGF121-stimulated HUVEC proliferation; format: cell-based, human
Protocol: as §3, §4

[3] = biological target: T1, KDR/Flk-1 and VEGF165R on HUVEC (Homo sapiens, UniProt O14786); test: Inhibition of 125I-VEGF165 binding to HUVEC; conditions: 125I-VEGF165 5 ng/ml, increasing concentrations of fusion protein, FIG. 3A
T1 construct: HUVEC, which express both KDR/Flk-1 and VEGF165R; endogenous in cells; host or cells: HUVEC (ATCC)
T1 sequence (O14786 22-923): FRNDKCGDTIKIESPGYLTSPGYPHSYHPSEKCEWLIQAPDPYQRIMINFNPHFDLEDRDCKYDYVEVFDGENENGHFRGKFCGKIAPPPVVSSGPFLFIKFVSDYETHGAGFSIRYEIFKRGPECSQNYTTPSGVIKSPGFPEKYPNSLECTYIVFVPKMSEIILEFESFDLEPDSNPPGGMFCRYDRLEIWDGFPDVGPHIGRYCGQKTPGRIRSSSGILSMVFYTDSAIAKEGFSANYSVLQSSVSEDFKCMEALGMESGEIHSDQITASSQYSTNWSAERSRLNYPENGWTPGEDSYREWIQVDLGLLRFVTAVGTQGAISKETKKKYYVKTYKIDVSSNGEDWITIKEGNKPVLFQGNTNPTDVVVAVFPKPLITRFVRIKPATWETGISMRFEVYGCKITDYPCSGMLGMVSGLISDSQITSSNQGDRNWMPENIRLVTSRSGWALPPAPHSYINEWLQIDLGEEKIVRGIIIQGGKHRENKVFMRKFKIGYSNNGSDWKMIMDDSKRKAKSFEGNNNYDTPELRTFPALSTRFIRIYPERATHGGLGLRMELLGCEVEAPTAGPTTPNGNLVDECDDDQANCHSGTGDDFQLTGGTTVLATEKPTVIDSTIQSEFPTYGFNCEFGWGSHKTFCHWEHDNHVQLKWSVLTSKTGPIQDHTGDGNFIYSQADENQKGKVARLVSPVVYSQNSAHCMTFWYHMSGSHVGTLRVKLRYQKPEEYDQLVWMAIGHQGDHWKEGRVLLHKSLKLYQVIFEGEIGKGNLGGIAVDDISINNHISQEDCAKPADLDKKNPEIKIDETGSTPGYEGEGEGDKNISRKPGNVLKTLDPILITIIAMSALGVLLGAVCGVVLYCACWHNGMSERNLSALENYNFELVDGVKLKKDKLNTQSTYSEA
Protocol: FIGS. 3A-3C. Inhibition of ^125I-VEGF165 binding to HUVEC, MDA MB 231 cells, and PAE-KDR cells by GST-EX 7+8. ^125I-VEGF165 (5 ng,/ml) was bound to subconfluent cultures of HUVEC (3A), MDA MB 23 1 cells (3B), and PAE-KDR cells (3C) in 48-well dishes in the presence of increasing amounts of GST-Ex 7+8 (closed 20 square) or control GST protein (open squares). At the end of a 2-h incubation, the cells were washed and lysed, and the cell-associated radioactivity was determined with a γ-counter. The counts obtained are expressed as the percentage of the counts obtained in the presence of PBS without addition of GST or fusion protein.
FIGS. 5A and 5B. Localization of a core inhibitory region within exon 7. GST-Ex 7 fusion proteins containing full-length exon 7-encoded domain or truncations at the N-terminal and C-terminal ends were prepared as described in the Examples. ^125I-VEGF165 (5 ng/ml) was bound to subconfluent HUVEC cultures as described in FIG. 3, in the presence of increasing concentrations of the GST fusion proteins. At the end of a 2-h incubation, the cells were washed and lysed, and the cell-associated radioactivity was determined with a y counter. The counts obtained are expressed as percentage of the counts obtained in the presence of PBS without fusion protein B, the amino acid sequences of VEGF exon 7 derivatives. These derivatives were prepared to contain the first cysteine residue of exon 8 at their C termini to keep an even number of cysteine residue. FIG. 5B discloses SEQ ID NO: 19.
as §2

VEGF165R = VEGF165R (Homo sapiens, UniProt O14786); test: Cross-linking of 125I-VEGF165 to VEGF165R on 231 cells; format: binding; set-up: to 231 cells which express only VEGF165R; endogenous in cells; host or cells: MDA-MB-231 (ATCC); conditions: 15 ug/ml fusion protein, FIG. 4 lane 4
Sequence of VEGF165R (O14786 22-923): as above
Protocol: as §1, §2

Substance: GST-Ex 7+8: GST fusion protein containing the peptide encoded by VEGF165 exons 7 and 8 (PCGPCSERRKHLFVQDPQTCKCSCKNTDSRCKARQLELNERTCRCDKPRR; cysteine pairing not given here; also: GST fusion protein, side of fusion not given here)
- binding/cross-linking of 125I-VEGF165 to KDR/Flk-1 on HUVEC (in words) (KDR/Flk-1): inhibits indirectly; also recorded: inhibited
- reduction of VEGF165-induced HUVEC proliferation ([1]; 15 ug/ml fusion protein added with VEGF165, FIG. 6): about 60%
- inhibition of the level of VEGF165-induced mitogenicity ([1]; FIG. 7, 15 ug/ml): about 2 fold
- inhibition of the mitogenic activity of VEGF121 for HUVEC [2]: about 50%
- inhibition of VEGF125-mediated HUVEC proliferation ([2]; 15 ug/ml, FIG. 7): about 2 fold
- inhibition of 125I-VEGF165 binding to HUVEC [3]: 85-95%
- formation of 125I-VEGF165/VEGF165R cross-linked complexes on 231 cells (in words) (VEGF165R): markedly inhibited
